Consider 1 compound from patent US20150072418A1, “HCV GENOTYPE 4D REPLICONS” (priority 2013, published 2015).

Assay [1] relates to GT 4d-Neo replicons (4d-2Re and 4d-3Re), NS3 activity. Nature of the assay: Inhibition of NS3 activity of GT 4d-Neo replicons from pooled colonies. To be noted: 4d-3Re and 4d-2Re replicon cells; FIG. 3A-B. It is filed as cell-based, Hepatitis C virus. The text has this: Alternately, efficacy of the HCV inhibitor can be measured by the expression or activity of the proteins encoded by the replicons. One example of such proteins is the NS3 protease, and detection of the protein expression or activity can be carried out with methods known in the art, e.g., Cheng et al., Antimicrob Agents Chemother 55:2197-205 (2011).
(§1) Luciferase or NS3 protease activity level is then converted into percentages relative to the levels in the controls which can be untreated or treated with an agent having known activity in inhibiting the HCV.
Two candidate HCV inhibitors, Compound A (FIG. 3A) and B (FIG. 3B) were used to test the inhibition of NS3 activities of the replicons isolated from pooled colonies (4d-2Re and 4d-3Re, see FIG. 2). […] Also observed was that NS3 activity was higher in 4d-3Re than 4d-2Re.
4000 cells/well were plated in 96-well white plates. NS3 activity was read 72 hours after plating. Values shown in FIG. 4 are mean of DMSO treated well from 3 plates.

For assay [2], the system named is GT4d (34R + 232G-pool) replicon. The assay can be described thus: HCV replicon susceptibility to antiviral agents, GT4d (34R + 232G-pool). It is filed as cell-based. To be noted: Hepatitis C virus, GT4d replicon with Q34R + S232G, n = 2. The procedure:
(§2) All of these HCV inhibitors, as well as any other candidate agents, can be tested with the disclosed methods for their efficacy in inhibiting HCV genotype 4d. The cells are then incubated at a suitable temperature for a period time to allow the replicons to replicate in the cells. The replicons can include a reporter gene such as luciferase and in such a case, at the end of the incubation period, the cells are assayed for luciferase activity as markers for replicon levels. Luciferase expression can be quantified using a commercial luciferase assay.
as §1
(§3) Stable GT4d subgenomic replicons were prepared to include these double mutations (FIG. 12). Ten micrograms of in vitro transcribed 4d Rluc-Neo RNA were transfected into 1C cells. G418 selection started 2 days after transfection and plates were fixed and stained after 2 weeks of G418 selection. […] The luciferase activity of these stable replicon cells of these replicons were further compared to GT4a replicons and GT1b.
(§4) Another comparison was made, with respect to each replicon's susceptibility against HCV antiviral agents.
A general note: Replicon systems follow genome replication, usually without infectious particles.

A further assay relates to GT1b replicon. The assay can be described thus: HCV replicon susceptibility to antiviral agents, GT1b. As to conditions: Hepatitis C virus, n = 2. Type of assay: cell-based. The procedure: as §2, §1, §4
Assay [3] has as its system GT4d (34R + 232I-pool) replicon. The assay can be described thus: HCV replicon susceptibility to antiviral agents, GT4d (34R + 232I-pool). It is filed as cell-based. As to conditions: Hepatitis C virus, GT4d replicon with Q34R + S232I, n = 2. The method, then:
as §2, §1, §3, §4

A further assay concerns GT4a replicon. The assay can be described thus: HCV replicon susceptibility to antiviral agents, GT4a. It is filed as cell-based. To be noted: Hepatitis C virus, n = 2. The method, then: as §2, §1, §4

What is called EC50 is the concentration that produces a half-maximal response. Regarding `CC(C)OC(=O)[C@H](C)NP(=O)(OC[C@H]1O[C@@H](n2ccc(=O)[nH]c2=O)[C@](C)(F)[C@@H]1O)Oc1ccccc1` (stereo partly drawn) [Compound A, isopropyl (2S)-2-[[[(2R,3R,4R,5R)-5-(2,4-dioxopyrimidin-1-yl)-4-fluoro-3-hydroxy-4-methyl-tetrahydrofuran-2-yl]methoxy-phenoxy-phosphoryl]amino]propanoate], the “inhibition of NS3 activity” value in assay [1] is given as “dose dependent inhibition”. The EC50 stood at 0.033 µM in assay [2], 0.158 µM with GT1b replicon, 0.037 µM in assay [3] and 0.07 µM in the assay on GT4a replicon.
